Laboratory results as given in patent US6602889B1, “5-heteroaryl substituted indoles” (H. Lundbeck A.S., priority 1998, dated 2003).
Counter-ions that a name gives are not always drawn. Like-named read-outs stand apart in the source and are kept apart here.

Key:
α1-adrenoceptors = assay: Inhibition of 3H-prazosin binding to α1-adrenoceptors in rat brain in vitro; settings: 3H-prazosin 0.25 nM, membranes from rat brain
Method: Method and results in Hyttel & Larsen, J. Neurochem.
The tissue is homogenized (Ultra Turrax, 10 se) in 10 mL of ice cold 50 mM tris buffer pH 7.7 (at 25° C.). The homogenate is centrifuged twice at 20,000 g for 10 min at 4° C. with rehomogenization of the pellet in 10 ml icecold buffer. The final pellet is homogenized in 250 vol (w/v) icecold buffer.
The binding experiment is initiated by addition of […] of tissue suspension (final tissue content corresponds to 3 mg original tissue) and by placing the 96 deep well titer plate in a 25 ° C. water bath. All tests are made in triplicates. After incubation for 20 min, the samples are filtered on a Brandel harvester under vacuum (18 inch. Hg) through printed filtermat B (13 mm). Titerplates and filter are washed 1×10 sec flow 50 L/h with ice cold buffer.
The filter mat is dried for 1 h at 110° C. and then placed in a sample bag with Meltilex B/HS (14.5 g) and melted together on the T-Tray heat sealer.
(§1) For determination of the inhibition of binding, five concentrations of drugs covering 3 decades are used.

dopamine D2 receptors = biological target: T1, dopamine D2 receptors (Rattus norvegicus, UniProt P61169); assay: Inhibition of 3H-spiperone binding to dopamine D2 receptors in rat corpus striatum in vitro
T1 construct: Male Wistar (Mol:Wistar) rats (125-250 g) are sacrificed and striatal tissue is dissected and weighed; from tissue; host or cells: rat corpus striatum membranes (male Wistar rats)
Method: Inhibition of ^3H-Spiperone Binding to Dopamine D2 Receptors in Rat Corpus Striatum in vitro
By this method, the inhibition by drugs of the binding of ^3H -spiperone (=^3H-spiro-peridol) (0.5 nM) to dopamine D-2 receptors in membranes from rat corpus striatum is determined in vitro. […] Pharmacol. Toxicol. […] This is a test for dopamine D2 receptor binding affinity in vitro.
The tissue is homogenized (Ultra Turrax, 10 sec.) in 10 mL of ice-cold 50 mM K-phosphate buffer pH 7.4 (at 25° C.). The homogenate is centrifuged twice at 20,000 g for 10 min at 4° C. with rehomogenization of the pellet in 10 mL ice-cold buffer. The final pellet is homogenized in 1300 vol (w/v) ice-cold buffer.
The binding experiment is initiated by addition of 100 μl of ^3H-spiperone (final concentration 0.5 nM) and by placing the tubes in a 37° C. water bath. […] The tubes are rinsed with 5 mL ice-cold buffer which are then poured on the filters. Thereafter, the filters are washed with 2×5 mL of buffer. The filters are placed in counting vials and 4 mL of appropriate scintillation fluid (e.g. Picofluor ™15) are added. After shaking for 1 h and storage for 2 hrs in the dark, the content of radioactivity is determined by liquid scintillation counting. Specific binding is obtained by subtracting the nonspecific binding in the presence of 10 μM of 6,7-ADTN.
For determination of the inhibition of binding, five concentrations of drugs covering 3 orders of magnitude are used.
England, specific activity 15-25 Ci/mmol.

[1] = biological target: T2, serotonin S2 (5-HT2A) receptors (Rattus norvegicus, UniProt P14842); assay: Inhibition of 3H-ketanserin binding to serotonin S2 (5-HT2A) receptors in rat cortex in vitro
T2 construct: Male Wistar (Mol:Wist) rats (125-250 g) are sacrificed and cortical tissue is dissected and weighed; from tissue; host or cells: rat cortex membranes (male Wistar rats)
Method: Inhibition of ^3H-Ketanserin Binding to Serotonin S2 (5-HT2Å) Receptors in Rat Cortex in vitro
By this method the inhibition by drugs of the binding of ^3H-ketanserin (0.5 nM) to serotonin S2 (5-HT2) receptors in membranes from rat cortex is determined in vitro.
The tissue is homogenized (Ultra Turrax, 10 sec) in 10 mL of ice cold 50 mM tris buffer pH 7.7 (at 25° C.). The centrifuge glassware used in this step has been rinsed by sonication for 10 min in ethanol. The homogenate is centrifuged twice at 20,000 g for 10 min. at 4° C., with rehomogenization of the pellet in 10 mL icecold buffer. The final pellet is homogenized in 250 vol (w/v) icecold buffer.
Incubation tubes (96 deep well titer plate) kept on ice receive […] of ^3H ketanserin (final concentration 0.5 nM).
The binding experiment is initiated by addition of […] of tissue suspension (final tissue content corresponds to 4 mg original tissue) and by placing the 96 deep well titer plate in a 37° C. water bath. All tests are made in triplicates.
After incubation for 30 min, the samples are filtered on a Brandel harvester under vacuum (18 inch. Hg) through printed filter mat B (13 mm). Titerplate and filter are washed 2×10 sec. flow 50 L/h with ice cold buffer.
The printed filter mat with purred labelled tissue are dried for 1 h at 110° C. and hereafter placed in a sample bag with Meltilex B/HS 14.5 g and melted together on the T-tray heat seal.
Specific binding is obtained by subtracting the nonspecific binding in the presence of 1 mM mianserin.
as §1
^3H-ketanserin=(ethylene-^3H)-ketanserin hydrochloride from New England Nuclear, specific activity 60-80 Ci/mmol.

[2] = 3H-spiperone 0.5 nM, membranes from rat corpus striatum, read-out: IC50 values in nM, D2
[3] = 3H-ketanserin 0.5 nM, membranes from rat cortex, read-out: IC50 values in nM, 5-HT2A

T2 sequence (P14842 whole entry): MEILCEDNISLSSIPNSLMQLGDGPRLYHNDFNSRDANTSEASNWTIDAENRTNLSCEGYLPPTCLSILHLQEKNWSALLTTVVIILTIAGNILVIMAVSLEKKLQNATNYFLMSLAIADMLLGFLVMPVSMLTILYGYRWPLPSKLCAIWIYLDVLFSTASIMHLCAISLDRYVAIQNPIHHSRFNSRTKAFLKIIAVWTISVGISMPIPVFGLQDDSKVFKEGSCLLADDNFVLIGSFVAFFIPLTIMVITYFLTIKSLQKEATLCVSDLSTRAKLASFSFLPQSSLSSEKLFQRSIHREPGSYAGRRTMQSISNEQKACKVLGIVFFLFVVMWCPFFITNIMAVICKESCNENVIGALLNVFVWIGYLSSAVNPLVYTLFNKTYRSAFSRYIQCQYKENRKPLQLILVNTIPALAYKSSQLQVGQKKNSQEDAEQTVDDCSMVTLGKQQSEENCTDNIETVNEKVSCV
T1 sequence (P61169 whole entry): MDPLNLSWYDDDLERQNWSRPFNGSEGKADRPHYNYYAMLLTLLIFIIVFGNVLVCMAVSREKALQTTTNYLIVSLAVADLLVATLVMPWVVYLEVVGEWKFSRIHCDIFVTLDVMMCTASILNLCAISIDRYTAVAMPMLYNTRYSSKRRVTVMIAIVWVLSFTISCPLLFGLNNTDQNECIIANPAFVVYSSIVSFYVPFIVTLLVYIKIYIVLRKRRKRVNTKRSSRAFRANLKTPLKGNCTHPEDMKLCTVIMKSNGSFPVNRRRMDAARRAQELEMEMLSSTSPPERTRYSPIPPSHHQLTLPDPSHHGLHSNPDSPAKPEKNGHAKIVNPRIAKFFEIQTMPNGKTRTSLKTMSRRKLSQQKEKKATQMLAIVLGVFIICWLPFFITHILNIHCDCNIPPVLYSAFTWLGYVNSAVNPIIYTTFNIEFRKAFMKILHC

| Compound | melting point [°C] | IC50 (α1-adrenoceptors) [nM] | IC50 (dopamine D2 receptors; [2]) [nM] | IC50 [1, 3] [nM] | IC50 (dopamine D2 receptors) [nM] | IC50 [1] [nM] |
| --- | --- | --- | --- | --- | --- | --- |
| Cn1nnnc1Cc1ccc2c(c1)c(C1CCN(CCN3CCNC3=O)CC1)cn2-c1ccc(F)cc1 (as salt: fumarate) [Compound 23c, 1-[2-[4-[(-(4-fluorophenyl)-5-[(1-methyltetrazol-5-yl)methyl]-1H-indol-3-yl]-1-piperidinyl]ethyl]-2-imidazolidinone 2.5 fumarate] | 169 to 171 | – | – | – | – | – |
| Cn1nnc(-c2ccc3c(c2)c(C2=CCN(CCN4CCNC4=O)CC2)cn3-c2ccncc2)n1 [Compound 5a, 1-[2-[4-[5-(2-Methyltetrazol-5-yl)-1-(4-pyridyl)-1H-indol-3-yl]-1,2,3,6-tetrahydro-1-pyridinyl]ethyl]-2-imidazolidinone] | 177 to 178 | 12 | > 100 | > 100 | – | – |
| Cn1nnc(-c2ccc3c(c2)c(C2CCN(CCN4CCNC4=O)CC2)cn3-c2ccncc2)n1 [Compound 6a, 1-[2-[4-[5-(2-Methyltetrazol-5-yl)-1-(4-pyridyl)-1H-indol-3-yl]-1-piperidinyl]ethyl]-2-imidazolidinone] | 204 to 206 | 18 | > 100 | > 100 | – | – |
| Cn1nnc(CCN2CC=C(c3cn(-c4ccc(F)cc4)c4ccc(-c5nnn(C)n5)cc34)CC2)n1 [Compound 17a, 1-(4-Fluorophenyl)-5-(2-methyltetrazol-5-yl)-3-[1-[2-(2-methyltetrazo-5-yl)ethyl]-1,2,3,6-tetrahydropyridin-4-yl]-1H-indole] | – | 4 | 20 | 70 | – | – |
| Cn1nnc(-c2ccc3c(c2)c(C2=CCN(CCc4nnnn4C)CC2)cn3-c2ccc(F)cc2)n1 [Compound 17b, 1-(4-Fluorophenyl)-5-(2-methyltetrazol-5-yl)-3-[1-[2-(1-methyltetrazol-5-yl)ethyl]-1,2,3,6-tetrahydropyridin-4-yl]-1H-indole, fumarate] | – | 4.9 | 97 | 450 | – | – |
| CN1CC=C(c2cn(-c3ccc(F)cc3)c3ccc(-c4nnn(C)n4)cc23)CC1 [Compound 21b] | 142 to 144 | 9.4 | – | – | 14 | > 100 |
| Cn1nnc(-c2ccc3c(c2)c(C2=CCN(CCN4CCNC4=O)CC2)cn3-c2ccc(F)cc2)n1 [Compound 22a, 1-[2-[4-[1-(4-Fluorophenyl)-5-(2-methyltetrazol-5-yl)-1H-indol-3-yl]-1,2,3,6-tetrahydropyridin-1-yl]ethyl]-2-imidazolidinone] | – | 1.5 | 37 | 210 | – | – |
| Cn1nnnc1-c1ccc2c(c1)c(C1=CCN(CCN3CCNC3=O)CC1)cn2-c1ccc(F)cc1 [Compound 22b, 1-[2-[4-[1-(4-fluorophenyl)-5-(1-methyltetrazol-5-yl)-1H-indol-3-yl]-1,2,3,6-tetrahydropyridin-1-yl]ethyl]-2-imidazolidinone] | 198 to 200 | 0.75 | 4.7 | 38 | – | – |
| CCn1nnc(-c2ccc3c(c2)c(C2=CCN(CCN4CCNC4=O)CC2)cn3-c2ccc(F)cc2)n1 [Compound 22c] | 179 to 181 | 7.8 | 110 | > 100 | – | – |
| Cn1nnnc1Cc1ccc2c(c1)c(C1=CCN(CCN3CCNC3=O)CC1)cn2-c1ccc(F)cc1 [Compound 22d, 1-[2-[4-[1-(4-fluorophenyl)-5-[(1-methyltetrazol-5-yl)methyl]-1H-indol-3-yl]-1,2,3,6-tetrahydropyridin-1-yl]ethyl]-2-imidazolidinone] | 174 to 176 | 0.72 | 5 | 18 | – | – |
| Cn1nnc(Cc2ccc3c(c2)c(C2=CCN(CCN4CCNC4=O)CC2)cn3-c2ccc(F)cc2)n1 [Compound 22e, 1-[2-[4-[1-(4-fluorophenyl)-5-[(2-methyltetrazol-5-yl)methyl]-1H-indol-3-yl]-1,2,3,6-tetrahydropyridin-1-yl]ethyl]-2-imidazolidinone] | 129 to 131 | 1.5 | 8.6 | 5 | – | – |
| Cn1ncc(-c2ccc3c(c2)c(C2=CCN(CCN4CCNC4=O)CC2)cn3-c2ccc(F)cc2)n1 [Compound 22g, 1-[2-[4-[1-(4-fluorophenyl)-5-(2-methyltriazol-4-yl)-1H-indol-3-yl]-1,2,3,6-tetrahydropyridin-1-yl]ethyl]-2-imidazolidinone] | 175 to 177 | – | 28 | 94 | – | – |
| CCn1ncc(-c2ccc3c(c2)c(C2=CCN(CCN4CCNC4=O)CC2)cn3-c2ccc(F)cc2)n1 [Compound 22i, 1-[2-[4-[5-(2-ethyltriazol-4-yl)-1-(4-fluorophenyl)-1H-indol-3-yl]-1,2,3,6-tetrahydropyridin-1-yl]ethyl]-2-imidazolidinone] | 143 to 145 | – | 51 | 22 | – | – |
| CCn1nnc(-c2ccc3c(c2)c(C2CCN(CCN4CCNC4=O)CC2)cn3-c2ccc(F)cc2)n1.Cl.Cl [Compound 23a, 1-[2-[4-[5-(2-ethyltetrazol-5-yl)-1-(4-fluorophenyl)-1H-indol-3-yl]-1-piperidinyl]ethyl]-2-imidazolidinone dihydrochloride] | 172 to 174 | 6.1 | > 100 | 53 | – | – |
| CN1CCC(c2cn(-c3ccc(F)cc3)c3ccc(-c4nnn(C)n4)cc23)CC1 [Compound 23b, 1-(4-fluorophenyl)-3-(1-methyl-4-piperidinyl)-5-(2-methyltetrazol-5-yl)-1H-indole] | – | 7.1 | > 100 | > 100 | – | – |
| Cn1nnnc1Cc1ccc2c(c1)c(C1CCN(CCN3CCNC3=O)CC1)cn2-c1ccc(F)cc1 [Compound 23c, 1-[2-[4-[(-(4-fluorophenyl)-5-[(1-methyltetrazol-5-yl)methyl]-1H-indol-3-yl]-1-piperidinyl]ethyl]-2-imidazolidinone 2.5 fumarate] | – | 0.5 | 3.7 | 8.3 | – | – |
| COc1cc2nc(N3CCN(C(=O)c4ccco4)CC3)nc(N)c2cc1OC [Prazosin, prazosin, reference compound] | – | 0.36 | 11000 | – | – | – |
| O=C1NCCN1CCN1CCC(c2cn(-c3ccc(F)cc3)c3ccc(Cl)cc23)CC1 [Sertindole, sertindole, reference compound] | – | 3.4 | – | – | – | – |
